Laboratory results taken from patent US20250319094A1, “COMPOSITION FOR PREVENTING OR TREATING ATOPIC DERMATITIS” (Yonsei University BioHealth Technology Holdings, Inc., priority 2022, published 2025).

Tests used:
[1] = at the beginning of application; cited from earlier work
[2] = test system: atopic dermatitis-induced flaky tail mice; experiment: Acute wiping (pain) and scratching (itching) behavior after drug application; type: in vivo, mouse
Excerpt: The existing drug dexamethasone is widely used as a treatment for atopic dermatitis, but long-term use causes various local side effects such as skin atrophy, dilated skin capillaries, and hypopigmented spots. Tacrolimus, which was developed to minimize these long-term local side effects, solved the problem of long-term and permanent local side effects of steroid drugs, but short-term skin irritation symptoms are emerging as a new problem, as it is known that about 50% of patients experience burning and skin rash at the beginning of application. Therefore, it is necessary to overcome the skin irritation side effects, and we wanted to check whether the newly discovered drug of bentamapimod can resolve the above side effects while maintaining the effectiveness of the animal drug through behavioral analysis of pain and itching using Flaky Tail mice. Wiping the face with the forelegs was interpreted as a behavioral measure of pain in mice, and scratching with the hind legs was interpreted as a behavioral measure of itching (J Vis Exp. 2019 Sep. 27; (151)). […] Flaky tail mice were treated with 200 μL of the test agent per group for one week to facilitate comparison, and the number of itches and pain behaviors were quantified and graphed (see FIG. 8a and FIG. 8b).

flaky tail mice = experiment: Chronic itch behavior before and after application of test drug; type: in vivo, mouse; settings: drug 3 times a week for 4 weeks after 4 weeks HDM; before vs after application
Procedure: Additional experiments were performed to compare the ITCH behavior before and after application of the dexamethasone, tacrolimus, and bentamapimod agents disclosed above. Specifically, atopic dermatitis was induced by applying 100 mg of HDM ointment to the backs of flaky tail mice for 4 weeks, after which drug treatments were applied 3 times a week for 4 weeks, and the chronic itch behavior before and after application of these test drugs was quantified and graphed (see FIG. 9a and FIG. 9b).

skin-specific T cells [3] = experiment: Flow cytometry of skin T cells from atopic dermatitis patient skin after drug application; type: cell-based, human; settings: immune cell fractions from skin tissue of atopic dermatitis patients
Procedure: To test the effect of the candidate drug on skin-specific T cells in human skin tissue, a single suspension was prepared using skin from a patient with atopic dermatitis. T cells were stained using anti-CD3, anti-CD4, anti-CD8, and anti-CD45 antibodies, and flow cytometry was performed on skin T cells using the skin TRM markers CD69 and CD103 to observe changes in the number and distribution of skin-specific T cells in response to drug application.

[4] = test system: T cells in skin-draining lymph nodes; experiment: FACS of T cell fractions in skin-draining lymph nodes of atopic dermatitis mouse model; type: in vivo
Procedure: (§1) To test the effect of the newly discovered bentamapimod drugs on skin-specific T cells, flaky tail mice were induced with atopic skin lesions using HDM three times a week until week 4 of the experiment as described in the Preparations and Examples above, and then treated with each drug at different concentrations for another 4 weeks. To determine changes in skin-specific T cells in each animal, single suspensions were then prepared from spleen, skin, and lymph nodes, and T cells were stained with anti-CD3, anti-CD4, anti-CD8, and anti-CD45 antibodies. Flow cytometric analysis of skin-specific T cells was performed using anti-CD69 and anti-CD103 antibodies to observe changes in the number and distribution of skin-specific T cells in response to drug application.

skin-specific T cells [5] = experiment: Flow cytometry of T cell fractions in skin of atopic dermatitis mouse model; type: in vivo; settings: 4 weeks
Procedure: as §1

normal skin tissue = experiment: Cell viability (CCK-8) cytotoxicity on normal skin tissue cells; type: cell-based; settings: overnight
Procedure: We sought to determine the optimal concentration of the drug Bentamapimod identified above that would not affect the cytotoxicity of the drug. To determine the final concentration of the drug, normal skin tissue was seeded as cells in […] 96-well plates using 5% (v/v) RPMI1640 medium (LONZA) and 1% penicillin/streptomycin medium and treated with bentamapimod at concentrations of 1 μM, 10 μM, 50 μM, 100 μM, and 200 μM, respectively, and incubated overnight in a 37° C. incubator. Then, 10 μl of Cell Counting Kit-8 drug (Dojindo Lot. PR863) was seeded into 96-well plates and the absorbance was measured at […] after 2 h.

[6] = test system: atopic dermatitis-induced flaky tail mice; experiment: Treatment effect in HDM-induced atopic dermatitis mouse model (clinical photograph, dermatitis score); type: in vivo; settings: 50 μM or 100 μM, 200 μL on back, 4 weeks
Procedure: The backs of the mice were shaved and exfoliated with a 4% diluted sodium dodecyl sulfate solution (SIGMA Lot #BCCD5615) once every 3 days to remove dead skin cells, and House Dust Mite (HDM), a typical trigger/exacerbator of atopic dermatitis, was topically applied to the mice to induce atopic skin lesions. The house dust mite ointment used was Atopic dermatitis challenging ointment from Biostir (Osaka, Japan), and atopic dermatitis-induced mice were prepared as described above (see FIG. 1).
In order to determine whether the bentamapimod drug discovered above has a therapeutic effect on atopic dermatitis, experiments were conducted using the mouse model prepared in the preliminary example and divided into control and experimental groups according to the timeline diagram shown in FIG. 4. […] To further verify the treatment effect, the flaky tail Mice dermatitis score of the atopic dermatitis mouse model according to the drug treatment was calculated by Wilcoxon-signed rank test and shown in FIG. 6. […]

## C=CC[C@@H]1/C=C(\C)C[C@H](C)C[C@H](OC)[C@H]2O[C@@](O)(C(=O)C(=O)N3CCCC[C@H]3C(=O)O[C@H](/C(C)=C/[C@@H]3CC[C@@H](O)[C@H](OC)C3)[C@H](C)[C@@H](O)CC1=O)[C@H](C)C[C@@H]2OC [tacrolimus]
[1]
  patients who experience burning and skin rash: about 50%
[2]; 0.1% concentration, 200 μL on back
  time at which wiping behaviors peaked: 30 min
[2]; 0.1% concentration, 200 μL on back, in 30 minutes
  number of scratching behaviors: 17 times

## N#CC(c1ccnc(OCc2ccc(CN3CCOCC3)cc2)n1)c1nc2ccccc2s1 (stereo not drawn) [bentamapimod, α-[2-[[4-(4-morpholinylmethyl)phenyl]methoxy]-4-pyrimidinyl]-2-benzothiazoleacetonitrile]
Flaky tail mice
  chronic scratching behavior, treatment effect: treatment effect was particularly significant
skin-specific T cells [3]; 50 μM
  percentage of skin-specific T cells: significant dose-dependent decrease
skin-specific T cells [3]; 100 μM
  percentage of skin-specific T cells: significant dose-dependent decrease
[2]; 50 μM and 100 μM
  local irritation symptoms such as itching and pain: did not cause local irritation symptoms
[2]; 50 μM, 200 μL on back
  number of scratching and wiping behaviors versus control D.W group: no difference
[2]; 100 μM, 200 μL on back
  number of scratching and wiping behaviors versus control D.W group: no difference
[4]; 100 μM
  CD3+ T cells in skin-draining lymph nodes: statistically significantly lower
[4]; 100 μM, skin-draining lymph nodes
  CD3+ CD4+ CD69+ CD103+ T cells: statistically significantly lower
[4]; skin-draining lymph nodes
  fraction of T cells expressing CD69 among CD3+ CD4+ T cells: reduced
  percentage of T cells compared to the 0.1% dexamethasone group: significantly reduced
skin-specific T cells [5]; 50 μM
  percentage of CD3+, CD4+ T cells in the skin: significantly reduced in a dose-dependent manner
skin-specific T cells [5]; 100 μM
  percentage of CD3+, CD4+ T cells in the skin: significantly reduced in a dose-dependent manner
skin-specific T cells [5]; skin
  percentage of CD69+ T cells and CD103+ T cells (skin-resident T cells): significantly reduced
  percentage of skin-specific T cells compared to the control 0.1% dexamethasone group: significantly reduced
Normal skin tissue; 50 μM
  cell viability: greater than 90%
Normal skin tissue; 100 μM
  cell viability: greater than 90%
[6]; FIG. 6
  atopic dermatitis scores (Flaky tail Mice dermatitis score): equivalent to or better than those of conventional drugs
[6]; compared to conventional drugs, FIG. 5
  treatment effect on atopic dermatitis skin lesions (wounding, dryness, desquamation, erythema, hemorrhage, edema): clinically significant treatment effect
